Assay results reported in patent US4499303A, “Antihyperlipidemic N-benzoylsulfamates, N-benzylsulfamates and benzylsulfonamides” (Research Corporation, priority 1983, dated 1985).
Entries after “also recorded” stand apart in the source; their conditions may differ. Like-named read-outs stand apart in the source and are kept apart here.

How the values were obtained:
Type in all cases: in vivo
[1] = tested on: Serum Triglycerides; test: Antihyperlipidemic effect in CF1 male mice: serum triglycerides; settings: for response vs control in vivo at 20 mg/kg: Mus musculus, ip, 384 h; for response vs control in vivo at 20 mg/kg / Serum Triglycerides, Day 16: 20 mg/kg/day I.P., CF1 male mice, N = 6, Day 16; for antihypertriglyceridemic activity (in words): mice, compared with others of Table I
Description: Serum triglycerides were assayed using the commercially available Bio-Dynamics/bmc Triglyceride Kit on blood collected on the 16th day. By comparison to standards, the mg% of cholesterol and mg/dl of triglycerides were calculated. Treated values are expressed as percent of control.

[2] = tested on: Serum Cholesterol; test: Antihyperlipidemic effect in CF1 male mice: serum cholesterol; settings: for response vs control in vivo at 20 mg/kg: Mus musculus, ip; for antihypercholesteremic activity (in words): mice, compared with others of Table I
[3] = tested on: triglyceride levels; test: Hypolipidemic effect in rodents at 60 mg/kg/day: triglycerides
Description: Of the series of compounds tested thus far, N-(p-chlorobenzoyl)-sulfamate and (o-chlorobenzyl)-sulfonamide appear to be of the most interest. N-(p-chlorobenzoyl)-sulfamic acid sodium salt at 20 mg/kg/day, I.P. lowered serum cholesterol levels 48% and serum triglyceride levels 45% after 16 days dosing.

[4] = tested on: normal and hyperlipidemic mice; test: Hypolipidemic effect in normal and hyperlipidemic mice, oral and intraperitoneal; settings: orally and intraperitoneally
[5] = tested on: serum cholesterol; test: Hypolipidemic effect in rodents at 60 mg/kg/day: serum cholesterol
Text: Of the series of compounds tested thus far, N-(p-chlorobenzoyl)-sulfamate and (o-chlorobenzyl)-sulfonamide appear to be of the most interest. […]

[6] = 216 h, 20 mg/kg/day I.P., CF1 male mice, N = 6, Day 9, read-out: Serum Cholesterol, Day 9
[7] = 384 h, 20 mg/kg/day I.P., CF1 male mice, N = 6, Day 16, read-out: Serum Cholesterol, Day 16
[8] = 20 mg/kg/day, I.P., after 16 days dosing, lowering

| SMILES | response vs control in vivo at 20 mg/kg [1] | response vs control in vivo at 20 mg/kg [2, 6] | response vs control in vivo at 20 mg/kg [2, 7] | antihypertriglyceridemic activity (in words) [1] | further results |
| --- | --- | --- | --- | --- | --- |
| CCOC(=O)C(C)(C)Oc1ccc(Cl)cc1 [Clofibrate, reference compound] | 95 ± 7% | 98 ± 7% | 97 ± 9% | – | – |
| COc1ccc(C(=O)NS(=O)(=O)O)cc1 [Compound 1] | 65 ± 8% | 63 ± 6% | 60 ± 7% | less active in lowering triglyceride levels | antihypercholesteremic activity (in words) [2]: more active than saccharin in lowering serum cholesterol levels |
| O=C(NS(=O)(=O)[O-])c1ccc(Cl)cc1.[Na+] [Compound 2, N-(p-chlorobenzoyl)-sulfamic acid sodium salt] | 55 ± 7% | 57 ± 5% | – | less active in lowering triglyceride levels | Serum Triglycerides, Day 16 ([1]; listed as p--Cl, sodium salt): 55±7 % Control; lowered serum triglyceride levels [1, 8]: 45%; lowered serum cholesterol levels [2, 8]: 48%; response vs control in vivo at 20 mg/kg ([2]; 384 h, read-out: Serum Cholesterol, Day 16): 52 ± 6%; antihypercholesteremic activity (in words) [2]: more active than saccharin in lowering serum cholesterol levels |
| O=C(NS(=O)(=O)O)c1cccc(Cl)c1 [Compound 3] | 97 ± 7% | 72 ± 5% | 64 ± 6% | less active in lowering triglyceride levels | antihypercholesteremic activity (in words) [2]: more active than saccharin in lowering serum cholesterol levels |
| O=C(NS(=O)(=O)O)c1ccccc1Cl [Compound 4] | 86 ± 8% | 78 ± 6% | 51 ± 5% | less active in lowering triglyceride levels | antihypercholesteremic activity (in words) [2]: more active than saccharin in lowering serum cholesterol levels |
| COc1cccc(C(=O)NS(=O)(=O)O)c1 [Compound 5] | 80 ± 7% | 86 ± 7% | 72 ± 5% | – | – |
| O=C(NS(=O)(=O)O)c1ccccc1 [Compound 7] | 70 ± 6% | 74 ± 6% | 57 ± 5% | less active in lowering triglyceride levels | antihypercholesteremic activity (in words) [2]: more active than saccharin in lowering serum cholesterol levels; antihypercholesteremic activity (in words) ([2]; listed as unsubstituted prototype): quite active |
| O=C(NS(=O)(=O)O)c1ccc(Br)cc1 [Compound 8] | 88 ± 3% | 75 ± 4% | 73 ± 7% | – | – |
| Cc1ccc(C(=O)NS(=O)(=O)O)cc1 [Compound 9] | 82 ± 4% | 70 ± 3% | 63 ± 3% | – | – |
| CC(=O)c1ccc(C(=O)NS(=O)(=O)O)cc1 [Compound 10] | 69 ± 6% | 95 ± 3% | 72 ± 4% | – | – |
| CC(C)c1ccc(C(=O)NS(=O)(=O)O)cc1 [Compound 11] | 49 ± 8% | 90 ± 6% | 77 ± 6% | – | Serum Triglycerides, Day 16 ([1]; listed as p-isopropyl derivative): 49±8 % Control |
| COc1ccc(CNS(=O)(=O)O)cc1 [Compound 12] | 91 ± 9% | 88 ± 4% | 87 ± 2% | – | – |
| O=S(=O)(O)NCc1ccccc1 [Compound 13] | 97 ± 8% | 94 ± 7% | 88 ± 2% | – | – |
| O=S(=O)(O)NCc1ccccc1Cl [Compound 14] | 75 ± 2% | 84 ± 8% | 78 ± 2% | increased antihyertriglyceridemic activity compared to N-benzoylsulfamate 4 | – |
| O=S(=O)(O)NCc1ccc(Cl)cc1 [Compound 15] | 79 ± 7% | 94 ± 2% | 93 ± 4% | – | – |
| NS(=O)(=O)Cc1ccccc1Cl [Compound 16, (o-Chlorobenzyl)sulfonamide] | 52 ± 6% | 99 ± 8% | 73 ± 6% | the most active antihypertriglyceridemics in the series | reducing triglyceride levels [3]: 49%; hypolipidemic activity (in words) [4]: effective both in normal and hyperlipidemic mice and is active both orally an intraperitonally; hypolipidemic agent in rodents (in words) [5]: potent hypolipidemic agent in rodents; reducing serum cholesterol levels ([5]; 60/mg/kg/day): 71% |
| COc1ccccc1CS(N)(=O)=O [Compound 17] | 58 ± 6% | 69 ± 4% | 68 ± 7% | – | antihypercholesteremic activity (in words) [2]: the most active antihypercholesteremic, being equal in activity to saccharin |
| COc1cccc(CS(N)(=O)=O)c1 [Compound 18] | 42 ± 4% | 84 ± 6% | 79 ± 7% | more active than saccharin; also recorded: the most active antihypertriglyceridemics in the series | Serum Triglycerides, Day 16 [1]: 42 % Control |
| COc1ccc(CS(N)(=O)=O)cc1 [Compound 19] | 76 ± 7% | 74 ± 8% | 70 ± 5% | – | – |
| NS(=O)(=O)Cc1ccccc1 [Compound 20] | 42 ± 3% | 95 ± 8% | 75 ± 5% | more active than saccharin; also recorded: the most active antihypertriglyceridemics in the series | Serum Triglycerides, Day 16 [1]: 42 % Control |
| NS(=O)(=O)Cc1cccc(Cl)c1 [Compound 21] | 71 ± 5% | 92 ± 7% | 77 ± 5% | – | – |
| NS(=O)(=O)Cc1ccc(Cl)cc1 [Compound 22] | 48 ± 4% | 94 ± 7% | 78 ± 8% | equally active with saccharin; also recorded: the most active antihypertriglyceridemics in the series | – |
| O=C1NS(=O)(=O)c2ccccc21 [Saccharin, reference compound] | 48 ± 6% | 77 ± 6% | 68 ± 7% | – | – |
